According to US20250205256A1 (GH RESEARCH IRELAND LIMITED, priority 2022, published 2025):

Assay: Pharmacokinetics after single inhaled dose of 5-MeO-DMT (LC-MS/MS)
Type: in vivo, human
Set-up: blood concentration relative to LLOQ: dose or concentration left out as unconfirmed
Conditions: metabolite after inhaled 5-MeO-DMT
Procedure: Blood samples were obtained at 1; 2; 4; 7; 10; 15; 20; 30; 45 min and 1; 1.5; 2; 3; 4 hours after administration.
PK parameters were generated by algebraic analysis of the concentration versus time plots for each individual. The analysis was carried out using the software Phoenix WinNonlin 6.3.

SMILES: CN(C)CCc1c[nH]c2ccc(O)cc12 [bufotenine]
- blood concentration observations with uptitration scheme: Substantially similar observations
- blood concentration relative to LLOQ: Only in few samples, concentrations were above the lower level of quantification
